Results as given in patent US12565497B2 (Hoffmann-La Roche Inc., priority 2020, dated 2026).
Structures can show the parent of a compound that is named as a salt.

Target: Recombinant human Mat2a (Homo sapiens (Human), UniProt P31153)
Assay: Determination of Mat2A activity (384 well absorbance-based assay, Biomol Green)
Assay type: biochemical
Settings: 12.5 nM Mat2A, 100 μM ATP and Methionine, 2% DMSO, 120 minutes at RT, absorbance at 635 nm; read-out: MAT2A_LEC IC50 (uM) (Num)
Description: Determination of Mat2A Activity
Measurement of Mat2A inhibition is performed in 384 well format absorbance-based assay. Recombinant human Mat2a (12.5 nM) and serial diluted compounds in DMSO (range of concentrations from 10 μM to 508 pM) or controls (DMSO) are incubated for 15 minutes at room temperature (RT) in assay buffer containing 50 mM HEPES pH 7.5, 50 mM KCl, 50 mM MgCl2, 0.01%Tween 20 and 10 mM DTT. The reaction is initiated by the addition of the combined substrates ATP and Methionine, each at a final concentration of 100 μM. Final assay condition are 12.5 nM Mat2A, 100 μM ATP and Methionine Substrates and 2% DMSO. After 120 minutes of incubation at RT, the reaction is stopped by the addition of Biomol Green. The absorbance signal is measured at λ=635 nm with a multiplate reader (BMG Pherastar reader or equivalent) after 30 min of equilibration at RT.

Chain of Recombinant human Mat2a (P31153 whole entry): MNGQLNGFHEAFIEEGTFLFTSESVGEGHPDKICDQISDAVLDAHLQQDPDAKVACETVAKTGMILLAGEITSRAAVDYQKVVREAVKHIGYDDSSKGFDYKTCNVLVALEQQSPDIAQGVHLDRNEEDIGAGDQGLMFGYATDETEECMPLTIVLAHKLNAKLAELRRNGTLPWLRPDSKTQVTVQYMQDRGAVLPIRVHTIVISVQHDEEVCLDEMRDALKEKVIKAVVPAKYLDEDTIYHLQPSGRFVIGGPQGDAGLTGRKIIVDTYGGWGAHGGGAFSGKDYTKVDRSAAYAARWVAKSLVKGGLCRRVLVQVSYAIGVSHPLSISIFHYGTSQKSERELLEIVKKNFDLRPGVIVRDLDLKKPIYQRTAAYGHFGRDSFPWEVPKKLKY

SMILES	IC50
Cc1cc(-c2nccc3[nH]nc(C4CC4)c23)ccc1S(C)(=O)=O [Example 1, 3-cyclopropyl-4-(3-methyl-4-(methylsulfonyl)phenyl)-1H-pyrazolo[4,3-c]pyridine]	0.048 µM
COc1cc(-c2nccc3[nH]nc(C4CC4)c23)ccc1S(C)(=O)=O [Example 2, 3-cyclopropyl-4-(3-methoxy-4-(methylsulfonyl)phenyl)-1H-pyrazolo[4,3-c]pyridine]	0.37 µM
CS(=O)(=O)c1ccc(-c2nccc3[nH]nc(C4CC4)c23)cc1Cl [Example 3, 4-(3-chloro-4-(methylsulfonyl)phenyl)-3-cyclopropyl-1H-pyrazolo[4,3-c]pyridine]	0.15 µM
CS(=O)(=O)c1ccc(-c2nccc3[nH]nc(C4CC4)c23)cc1C(F)(F)F [Example 4, 3-cyclopropyl-4-(4-(methylsulfonyl)-3-(trifluoromethyl)phenyl)-1H-pyrazolo[4,3-c]pyridine]	0.24 µM
Cc1cc(-c2nccc3[nH]nc(C4CC4)c23)ccc1S(=O)(=O)N(C)C [Example 5, 4-(3-cyclopropyl-1H-pyrazolo[4,3-c]pyridin-4-yl)-N,N,2-trimethylbenzenesulfonamide]	0.17 µM
COc1ncc2[nH]nc(C3CC3)c2c1-c1ccc(S(C)(=O)=O)cc1 [Example 6, 3-cyclopropyl-5-methoxy-4-(4-methylsulfonylphenyl)-1H-pyrazolo[3,4-c]pyridine]	0.17 µM
Cc1cc(-c2nccc3[nH]nc(C4CC4)c23)ccc1S(=O)(=O)C1CC1 [Example 7, 3-cyclopropyl-4-(4-(cyclopropylsulfonyl)-3-methylphenyl)-1H-pyrazolo[4,3-c]pyridine]	0.046 µM
O=S(=O)(c1ccc(-c2nccc3[nH]nc(C4CC4)c23)cc1Cl)C1CC1 [Example 8, 4-(3-chloro-4-(cyclopropylsulfonyl)phenyl)-3-cyclopropyl-1H-pyrazolo[4,3-c]pyridine]	0.37 µM
CN(C)S(=O)(=O)c1ccc(-c2nccc3[nH]nc(C4CC4)c23)cc1Cl [Example 9, 2-chloro-4-(3-cyclopropyl-1H-pyrazolo[4,3-c]pyridin-4-yl)-N,N-dimethylbenzenesulfonamide]	0.24 µM
CS(=O)(=O)c1ccc(-c2nccc3[nH]nc(C(F)(F)F)c23)cc1 [Example 11, 4-(4-(methylsulfonyl)phenyl)-3-(trifluoromethyl)-1H-pyrazolo[4,3-c]pyridine]	0.28 µM
CS(=O)(=O)c1ccc(-c2nccc3[nH]nc(C4CC4)c23)cc1C(F)F [Example 12, 3-cyclopropyl-4-(3-(difluoromethyl)-4-(methylsulfonyl)phenyl)-1H-pyrazolo[4,3-c]pyridine]	0.22 µM
CS(=O)(=O)c1ccc(-c2nccc3[nH]nc(C4CC4)c23)cc1CF [Example 13, 3-cyclopropyl-4-(3-(fluoromethyl)-4-(methylsulfonyl)phenyl)-1H-pyrazolo[4,3-c]pyridine]	0.11 µM
Cc1cc(-c2nccc3[nH]cc(C4CC4)c23)ccc1S(C)(=O)=O [Example 14, 3-cyclopropyl-4-(3-methyl-4-(methylsulfonyl)phenyl)-1H-pyrrolo[3,2-c]pyridine]	0.099 µM
Cc1cc(-c2nccc3[nH]nc(C4CC4)c23)ccc1S(=O)(=O)C1COC1 [Example 15, 3-cyclopropyl-4-(3-methyl-4-(oxetan-3-ylsulfonyl)phenyl)-1H-pyrazolo[4,3-c]pyridine]	0.27 µM
Cc1cc(-c2c(C#N)ncc3[nH]nc(C4CC4)c23)ccc1S(C)(=O)=O [Example 16, 3-cyclopropyl-4-(3-methyl-4-(methylsulfonyl)phenyl)-1H-pyrazolo[3,4-c]pyridine-5-carbonitrile]	< 0.013 µM
Cc1cc(-c2nccc3[nH]nc(C(C)(F)F)c23)ccc1S(C)(=O)=O [Example 17, 3-(1,1-difluoroethyl)-4-(3-methyl-4-(methylsulfonyl)phenyl)-1H-pyrazolo[4,3-c]pyridine]	< 0.013 µM

SMILES	IC50
Cc1cc(-c2nccc3[nH]nc(C(F)F)c23)ccc1S(C)(=O)=O [Example 18, 3-(difluoromethyl)-4-(3-methyl-4-methylsulfonylphenyl)-1H-pyraxolo[4,3-c]pyridine]	0.095 µM
Cc1cc(-c2nccc3[nH]nc(C(C)C)c23)ccc1S(C)(=O)=O [Example 19, 3-isopropyl-4-(3-methyl-4-(methylsulfonyl)phenyl)-1H-pyrazolo[4,3-c]pyridine]	0.042 µM
Cc1cc(-c2nccc3[nH]nc(C4CC4)c23)c(F)cc1S(C)(=O)=O [Example 21, 3-cyclopropyl-4-(2-fluoro-5-methyl-4-methylsulfonyl-phenyl)-1H-pyrazolo[4,3-c]pyridine]	0.056 µM
Cc1cc(S(C)(=O)=O)c(C)cc1-c1nccc2[nH]nc(C3CC3)c12 [Example 22, 3-cyclopropyl-4-(2,5-dimethyl-4-methylsulfonyl-phenyl)-1H-pyrazolo[4,3-c]pyridine hydrochloride]	0.15 µM
Cc1cc(-c2nccc3[nH]nc(C4CC4)c23)ccc1[S+](C)[O-] (stereo not shown) [Example 23, 3-cyclopropyl-4-(3-methyl-4-methylsulfmyl-phenyl)-1H-pyrazolo[4,3-c]pyridine hydrochloride]	0.083 µM
COc1ncc2[nH]nc(C3CC3)c2c1-c1ccc(S(C)(=O)=O)c(C)c1 [Example 24, 3-cyclopropyl-5-methoxy-4-(3-methyl-4-(methylsulfonyl)phenyl)-1H-pyrazolo[3,4-c]pyridine]	< 0.013 µM
Cc1cc(-c2nccc3[nH]nc(OC(F)F)c23)ccc1S(=O)(=O)C(F)F [Example 25, 3-(difluoromethoxy)-4-[4-(difluoromethylsulfonyl)-3-methyl-phenyl]-1H-pyrazolo[4,3-c]pyridine]	0.013 µM
Cc1cc(-c2nccc3[nH]nc(OC(F)F)c23)ccc1S(=O)(=O)C1CC1 [Example 26, 4-(4-cyclopropylsulfonyl-3-methyl-phenyl)-3-(difluoromethoxy)-1H-pyrazolo[4,3-c]pyridine]	< 0.013 µM
CCS(=O)(=O)c1ccc(-c2nccc3[nH]nc(OC(F)F)c23)cc1C [Example 27, 3-(difluoromethoxy)-4-(4-ethylsulfonyl-3-methyl-phenyl)-1H-pyrazolo[4,3-c]pyridine]	< 0.013 µM
Cc1cc(-c2nccc3[nH]nc(C4COC4)c23)ccc1S(C)(=O)=O [Example 28, 4-(3-methyl-4-methylsulfonyl-phenyl)-3-(oxetan-3-yl)-1H-pyrazolo[4,3-c]pyridine]	0.51 µM
Cc1cc(-c2nccc3[nH]nc(OC(F)F)c23)ccc1S(=O)(=O)CC1CC1 [Example 29, 4-[4-(cyclopropylmethylsulfonyl)-3-methyl-phenyl]-3-(difluoromethoxy)-1H-pyrazolo[4,3-c]pyridine]	0.29 µM
CCCS(=O)(=O)c1ccc(-c2nccc3[nH]nc(OC(F)F)c23)cc1C [Example 30]	0.057 µM
CS(=O)(=O)c1ccc(-c2nccc3[nH]nc(OC(F)F)c23)cc1C(F)F [Example 31]	0.033 µM
Cc1cc(-c2nccc3[nH]nc(OC(F)F)c23)ccc1S(=O)(=O)C(C)C [Example 32]	< 0.013 µM
CNS(=O)(=O)c1ccc(-c2nccc3[nH]nc(OC(F)F)c23)cc1C [Example 33, 4-[3-(difluoromethoxy)-1H-pyrazolo[4,3-c]pyridin-4-yl]-N,2-dimethyl-benzenesulfonamide]	0.029 µM
